{"source": "patent US7718677B2", "about": "“Methods and compositions for reduction of side effects of therapeutic treatments” (priority 2007, dated 2010)", "test_system": "6-hydroxydopamine-lesioned rats", "protocol": "Animal model—6-Hydroxydopamine lesioning. We used the 6-hydroxydopamine lesioned rat model of nigrostriatal damage described by Cenci and colleagues (Cenci et al., 1998 Eur J Neurosci 10:2694-2706; Cenci et al., 2002 Nat Rev Neurosci 3:574-579). Adult male Sprague-Dawley rats were anesthetized with isofluorane, and then placed in a Kopf stereotaxic instrument. Burr holes were drilled through the skull and an intracranial injection of 6 μg 6-hydroxydopamine (2 μg/μl) stereotaxically injected at two separate sites into the right ascending dopamine fiber bundle, for a total of 12 μg 6-hydroxydopamine. The coordinates for the position of these two lesion sites were as follows relative to the Bregma and dural surface: (1) anteroposterior, −4.4; lateral, 1.2; ventral, 7.8; tooth bar at −2.4; (2) anteroposterior, −4.0; lateral, 0.75; ventral, 8.0; tooth bar at +3.4 (Cenci et al., 1998 Eur J Neurosci 10:2694-2706; Cenci et al., 2002 Nat Rev Neurosci 3:574-579). All procedures conformed to the NIH Guide for the Care and Use of Laboratory Animals and were approved by the Institutional Animal Care and Use Committee.\nNicotine treatment regimen. The rats were first given a drinking solution containing 1% saccharin for 3-4 days (FIG. 8). Nicotine was then added at a concentration of 25 μg/ml, and increased to 50 μg/ml 3-4 days later. Animals were maintained on this dose for 3 weeks. L-dopa treatment was then initiated, as below, with the nicotine dosing continued.\nL-dopa treatment and behavioral testing for AIMs. Rats received single daily intraperitoneal injections of 8 mg/kg L-dopa methyl ester plus 15 mg/kg benserazide for 3 weeks (FIG. 8), as described (Cenci et al., 1998 Eur J Neurosci 10:2694-2706; Cenci et al., 2002 Nat Rev Neurosci 3:574-579). Abnormal involuntary movements (AIMs) after daily LDOPA injection were then quantified using the scale developed by Cenci and colleagues (Cenci et al., 1998 Eur J Neurosci 10:2694-2706; Cenci et al., 2002 Nat Rev Neurosci 3:574-579), as previously done in our laboratory (Cox et al., 2007, Exp. Neurol.). Rats were placed in a Rotomax test chamber. They were then scored on a scale from 0 to 4: 1=occasional; 2=frequent; 3=continuous but interrupted by sensory distraction; 4=continuous, severe, not interrupted by sensory distraction. The rating categories were as follows; (1) axial dystonia, consisting of twisting posturing of the head and neck; (2) orolingual dyskinesia, with stereotyped jaw movements and contralateral tongue protrusion and (3) forelimb movements, with dystonic movements of the contralateral forelimb. They were also assessed for locomotive dyskinesia, or increased locomotion with contralateral side bias; however, these scores were not included because the interpretation of this motor response is not clear (Papa et al., 1994 Brain Res 662; 69-74; Cenci et al., 1998 Eur J Neurosci 10:2694-2706).\nLocomotive dyskinesias are distinct from turning behavior described above. […] The maximum possible score in each session was thus 108 (maximum score per observation=12; number of observations per session=9). Rats were evaluated by two raters, one blinded to treatment.\nData analyses. Statistical significance was determined using Student's t-tests or ANOVA followed by Bonferroni post hoc tests, as appropriate. Data are mean±SEM. A p level of 0.05 was considered significant.", "data": [{"smiles": "CN1CCCC1c1cccnc1", "note": "(stereo not drawn) [Nicotine, S-3-(1-methyl-2-pyrrolidinyl)pyridine]", "values": [{"measurement": "total AIMs", "setting": "25 μg/ml nicotine in the drinking water, two and four weeks after dose lowering, pooled", "result": "reduction in AIMs was sustained"}, {"measurement": "total AIM scores", "setting": "50 μg/ml nicotine in drinking water, after 3 weeks of L-dopa 8 mg/kg ip, entire 3-hour period", "result": "reduction"}, {"measurement": "oral dyskinesias", "setting": "3 and 6-8 week time points", "result": "trend for a decrease"}, {"measurement": "forelimb dyskinesias", "setting": "3 and 6-8 week time points, both doses of nicotine (50 and 25 μg/ml)", "result": "significant decreases"}, {"measurement": "axial dyskinesias", "setting": "6-8 week time point", "result": "significant decreases"}, {"measurement": "persistence of the decline in AIMs with L-dopa treatment", "setting": "25 and 50 μg/ml in the drinking water", "result": "at least 2 months"}]}]}
